From patent publication US6025387A, “Gastroprotective flavone/flavanone compounds with therapeutic effect on inflammatory bowel disease” (Dong a Pharmaceutical Co., Ltd., priority 1996, dated 2000)
≈ marks a conversion by molar mass, not a printed value.

Key:
neutrophils = test: Luminol-dependent chemiluminescence of neutrophils induced by FMLP; type: cell-based; settings: 1 μM FMLP, 0.07 mM luminol; for IC50: Neutrophil, read-out: IC50, inhibition of chemiluminescence generated by neutrophil activation
Protocol: Measurement of luminol-dependent chemiluminescencei iof neutrophil induced by FMLP.
20 mL of 12% sodium caseinate-0.9% saline was administered intraperitoneally (Newsby, A. C., Biochem. J., 1980, 186: 907,. After 20 hours, the intraperitoneal exudate was extracted under ether anesthesia. The exudate was centrifuged, and erythrocytes were removed by hypotonic lysis, and then neutrophil was washed. Neutrophil was ascertained by Wright's dyeing method, and viability was measured by Trypan blue exclusion test. Chemiluminescence was measured by Topcount (Packard Co.). The suspension of 1.5×10^6 of granulocytes, 1 μM of FMLP, 0.07 mM of luminol and the compound in HBSS was used (Dahlgren, C., et al., Infect. Immun., 1985 47: 326-328).
**IC50 (μg/mL): Concentration of the compound at inhibiting
chemiluminescence generated by neutrophil activation to 50%

[1] = test system: gastric mucosal damage induced by ethanolic HCl; test: Gastritis model induced with ethanolic-HCl; type: in vivo, SD male rat; settings: po, 1 h, rat; for inhibition in vivo at 0.3 mg/kg: 0.3 mg/kg p.o.; for inhibition in vivo at 1 mg/kg: 1 mg/kg p.o.; for inhibition in vivo at 3 mg/kg: 3 mg/kg p.o.
Protocol: Effect on the Gastritis Model Induced with Ethanolic-HCl.
SD male rat(250-350 g) was fasted for 24 hours. The compound was orally administered in suspension of 5% HPMC, and after 1 hour 1.5 mL of 150 mM HCl-80% ethanol was orally administered. After 1 hour the rat was sacrifieced and the stomach was extracted and the ulcer index was measured. The ulcer index was shown by the area of hemorrhage lesion(Mizui, T, et al., Jpn. J. Pharmacol. 1983, 33: 939).

ulcer = settings: in vivo; cited from earlier work
TNBS-induced colitis = TNBS-induced colitis model, oral administration; type: in vivo, male SD rats; settings: for lesion scores: once a day for 13 days, rat; for adhesion degree / dilation and extention degree: score 0-3, rat
Protocol: Experiment on the Model of Inflammatory Bowl Diseases Induced with TNBS
7 week-aged male SD rats were fasted for a day, and the rats were put under anesthesia and canula (diameter 3 mm) was inserted into the anus to the depth of 8 cm. 25 mg/mL of TNBS (Trinitrobenzene sulfonic acid) dissolved in 50% ethanol solution was injected to each rat and the rats were positioned at feature of tail up for 1 minute. The solution flowing out was removed and the rats were once washed with 1.5 mL of saline solution. After colitis was induced, the compound was administered orally or intracolonically once a day for 13 days. For control, mesalazine (5-amino salicylic acid) was used for oral administration and prednisolone was used for rectal administration. At 14th day of experiment, each group of the rats were put under ether anesthesis, the colon was extracted and the degree of adhesion and extension of the large intestine were measured and their lesion scores were recorded. After 1% formalin solution was injected to the cavity of the extracted colon to inflate, the both ends of it were bonded with each other and it was all-fixed in 1% formalin solution for 2 hours. The all-fixed colon was cut to lengthy direction and washed to remove surrounding fat tissues and connective fissaes. After cecum was removed, the weight of the colon and the rectum was measured, and the area of ulcer lesion, and microscopic lesion were measured to mark scores according to the criterion. And they were fixed in 10% neutral formalin solution, and the tissue examination of lesion site was performed by general method to mark scores according to the criterion.
Clinical symptoms: Daily, we observed clinical symptoms and survival of the animals. And we measured the weight of the animals at the beginning day, third and eighth day of the experiment.
(0: non-adhesion, 1: adhesion exists but easily taken off by gloved hand, 2: more severe adhesion than 1 exists but easily taken off by scissors, 3: very severe adhesion exists, so it is difficult to be taken off by scissors because of possibility of its perforation.)
Degree of thickening and extension of the large intestine: We marked scores of the degree of thickness and extension of the large intestine according to the criterion, following the method of Kim et al., and compared with the average value of each group.
(0: lesion site non-existing, 1: a few degree of lesion, 2: intermediate degree of lesion, 3: severe degree of lesion)
We scored the lesion examined with the naked eye and compared the average value of each group. The standards of lesion scores as criterion of the damage of the colon by Wallace's method is as followings.
(0: normal, non-damaged, 1: congestion without ulcer 2: congestion and thickening of intestinal wall without ulcer, 3: an ulcer lesion without thickening of intestinal wall, 4: more than two ulcerous/inflammatory lesion, 5: more than two ulcerous/inflammatory lesion or the length of ulcerous/inflammatory lesion is more than 1 cm, 6-10: when the length of lesion is over 2 cm, one point increases everytime 1 cm of the length of ulcerous/inflammatory increases, for example, when the ulcer length is 3 cm, the point is 7.)
Microscopic evaluation: We trimmed the colon giving 3 cm interval from the rectum to the cecum, including the site of lesion examined with the naked eye, to make at least 4 specimens per an individual. […] When the lesion can not be examined with the naked eye, we trimmed the other specimen which has the lesion, with 3 cm interval.

gastric mucus secretion = test: Measurement of gastric mucus; type: in vivo, SD male rat; settings: oral, rat
Protocol: Measurement of Gastric Mucus
The compound was orally administered into SD male rat (200~250 g). After 1 hour the stomach was extracted. The extracted stomach was immediately washed with 10 mL of cold 0.25M sucrose solution. The gastric mucosa was dyed with 0.1% alcian blue solution for 2 hours. After dyeing, the gastric mucosa was washed with 0.25M sucrose solution twice for 15 minutes and for 45 minutes. The dyed gastric mucosa was treated with 10 mL of 30% dioctyl sodium sulfosuccinate solution for 2 hours to extract dyed mucus completely and optical density of aqueous phase was measured spectrophotometrically at 655 nm. The amount of mucus in the gastric mucosa was shown as the amount of alcian blue after calibration (Kitagawa, H., et al., Drug Res. 1986, 36: 1240-1244).

[2] = test system: chronic gastritis induced with acetic acid; test: Model of chronic gastritis induced with acetic acid; type: in vivo, SD male rat; settings: once a day for 21 days, rat
Protocol: Experiment on the Model of Chronic Gastritis Induced with Acetic Acid
From the next day of the surgical operation, the compound was orally administered once a day for 21 days. After 21 days, the stomach was extracted under ether anesthesis, dipped in 1% formalin solution and the area of gastric lesion was measured. […] An pathological tissue autopsy was carried out for the prepared specimen.

cyclooxygenase = test: Cyclooxygenase activity in HUVEC (PGF1 α synthesis); type: cell-based
Protocol: Measurment of Cyclooxygenase Actvity
After addition of the compound to cultured HUVEC, the HUVEC was incubated at 37° C., for 30 minutes, then arachidonic acid (final concentration: 30 .rho.M) was added, and the HUVEC was additionally incubated at 37° C. for 15 minutes. The culture medium was taken, and the activity of cyclooxygenase for 6-Keto-PGF1 α or PGE2 was measured by radioimmunoassay (Mitchell, J. A., et al., Pro. Natl. Acad. Sci. USA 1994, 90: 11693-11697).
**SC200 (ug/mL) : Concentration at increasing generation of […]

SMILES | inhibition in vivo at 0.3 mg/kg [1] [%] | inhibition in vivo at 1 mg/kg [1] [%] | inhibition in vivo at 3 mg/kg [1] [%] | anti-ulcerative action (ulcer) | further results
COc1ccc(-c2cc(=O)c3c(OC)c(OC)c(OCCO)cc3o2)cc1OC [7-hydroxyethyloxy-3',4',5,6-tetramethoxy flavone] | 43 | 50 | 51 | – | IC50 (neutrophils): 0.13 µg/mL (≈ 0.323 µM)
COc1ccc(-c2cc(=O)c3cc(OC)c(OCC(=O)O)cc3o2)cc1OC [7-carboxymethyloxy-3',4',6-trimethoxy flavone] | 30 | 31 | 39 | – | –
O=c1c(O)c(-c2ccc(O)cc2)oc2cc(O)cc(O)c12 [kampferol] | – | – | – | anti-ulcerative action | –
COc1ccc([C@@H]2CC(=O)c3c(O)cc(O[C@@H]4O[C@H](CO[C@@H]5O[C@@H](C)[C@H](O)[C@@H](O)[C@H]5O)[C@@H](O)[C@H](O)[C@H]4O)cc3O2)cc1O [hesperidine] | – | – | – | anti-ulcerative action | –
COc1ccc(-c2cc(=O)c3c(OC)cc(OCCO)cc3o2)cc1OC [7-hydroxyethyloxy-3',4',5-trimethoxy flavone] | 0 | 34 | 47 | – | –
Nc1ccc(O)c(C(=O)O)c1 [mesalazine, 5-amino salicylic acid, reference compound] | – | – | – | – | lesion scores (TNBS-induced colitis; 25 mg/kg p.o.): 2.8; adhesion degree (TNBS-induced colitis; 25 mg/kg p.o.): 1.4; dilation and extention degree (TNBS-induced colitis; 25 mg/kg p.o.): 0.9; lesion scores (TNBS-induced colitis; 50 mg/kg p.o.): 2.2; adhesion degree (TNBS-induced colitis; 50 mg/kg p.o.): 1.0; dilation and extention degree (TNBS-induced colitis; 50 mg/kg p.o.): 1.1
O=C(NC(Cc1cc(=O)[nH]c2ccccc12)C(=O)O)c1ccc(Cl)cc1 (centres unmarked) [Rebamipide, 2(4-chlorobenzoylamino)-3-(2-(LH)-quinolinone-4-yl)propanonic acid, reference compound] | – | – | 22 | – | gastric mucus secretion, % Control (gastric mucus secretion; 10 mg/kg): 128 % Control; gastric mucus secretion, % Control (gastric mucus secretion; 100 mg/kg): 136 % Control; inhibiting% (gastric lesion) ([2]; 10 mg/kg p.o.): 41%; inhibiting% (gastric lesion) ([2]; 100 mg/kg p.o.): 7%; IC50, inhibition of chemiluminescence generated by neutrophil activation (neutrophils): 92 µg/mL; IC50 (neutrophils): 92.1 µg/mL (≈ 248 µM); inhibition in vivo at 10 mg/kg ([1]; 10 mg/kg p.o.): 30%; inhibition in vivo at 30 mg/kg ([1]; 30 mg/kg p.o.): 47%
COc1ccc(C2CC(=O)c3c(cc(OCC(=O)O)c(OC)c3O)O2)cc1OC (centres unmarked) [7-carboxymethyloxy-5-hydroxy-3',4',6-trimethoxy flavanone] | 0 | 18 | 50 | – | IC50 (neutrophils): 1.79 µg/mL (≈ 4.43 µM)
O=C1C[C@@H](c2ccc(O)cc2)Oc2cc(O)cc(O)c21 [naringenin] | – | – | – | anti-ulcerative action | –
COc1ccc(-c2cc(=O)c3c(O)c(OC)ccc3o2)cc1OC [5-hydroxy-3',4',6-trimethoxy flavone] | 38 | 42 | 64 | – | –
CNC(=O)COc1cc(OC)c2c(=O)cc(-c3ccc(OC)c(OC)c3)oc2c1 [7-(N-methylamidomethyloxy)-3',4',5-trimethoxy flavone] | 43 | 47 | 45 | – | –
O=c1c(O)c(-c2ccc(O)c(O)c2)oc2cc(O)cc(O)c12 [quercetin] | – | – | – | anti-ulcerative action | –
COc1ccc(-c2cc(=O)c3c(O)cc(OC)cc3o2)cc1 [apigenin-7,4'-dimethylether] | – | – | – | anti-ulcerative action | –
COc1ccc(-c2cc(=O)c3c(O)c(OC)c(OCC(=O)O)cc3o2)cc1OC [7-carboxymethyloxy-5-hydroxy-3',4',6-trimethoxy flavone] | 16 | 77 | 56 | – | SC200, concentration increasing generation of PGF1α to 200% (cyclooxygenase): 18.41 µg/mL; IC50 (neutrophils): 1.73 µg/mL (≈ 4.3 µM)
COc1ccc(C2CC(=O)c3c(OC)cc(O)cc3O2)cc1OC (centres unmarked) [7-hydroxy-3',4'5-trimethoxy flavanone, 7-hydroxy-3',4',5-trimethoxy flavanone] | 30 | 57 | 76 | – | –
COC(=O)COc1cc(OC)c2c(=O)cc(-c3ccc(OC)c(OC)c3)oc2c1 [7-methoxycarbomethyloxy-3',4',5-trimethoxy flavone] | – | – | – | – | IC50 (neutrophils): 0.95 µg/mL (≈ 2.37 µM)
O=c1cc(-c2ccc(O)c(O)c2)oc2c(O[C@@H]3O[C@H](CO)[C@@H](O)[C@H](O)[C@H]3O)c(O)cc(O)c12 [hypolaetin-8-glucoside] | – | – | – | anti-ulcerative action | –
